One data set has as its system Saccharomyces cerevisiae. Briefly: Antimicrobial activity against Saccharomyces cerevisiae S100 at 100 microg/ml incubated for 20 hrs by liquid microculture method. Format: functional, organism-based. The note with it: dose 100.0 µg/ml.
The test system of the next data set is Staphylococcus aureus. Briefly: Antimicrobial activity against Staphylococcus aureus FDA209P JC-1 at 100 microg/ml incubated for 20 hrs by liquid microculture method. The format is functional, organism-based. The note with it: dose 100.0 µg/ml.
The test system of data set [1] is Agrobacterium radiobacter. Nature of the data set: Antimicrobial activity against Rhizobium radiobacter NBRC14554 at 100 microg/ml incubated for 20 hrs by liquid microculture method. The format is functional, organism-based. The note with it: dose 100.0 µg/ml.
For another data set, the system named is Candida albicans. Nature of the data set: Antimicrobial activity against Candida albicans NBRC0197 at 100 microg/ml incubated for 20 hrs by liquid microculture method. The following applies: dose 100.0 µg/ml. Format: functional, organism-based.
Data set [2] can be described thus: Cytotoxicity against mouse P388 cells at 100 uM. Format: toxicity, cell-based.
Data set [3] deals with Trypanosoma cruzi. Nature of the data set: Antitrypanosomal activity against Trypanosoma cruzi epimastigote assessed as inhibition of proliferation by measuring cellular ATP level incubated for 24 hrs by Cell Titer-Glo 2.0 assay. Format: functional, organism-based.
The subject of a further data set is Kocuria rhizophila. Briefly: Antimicrobial activity against Kocuria rhizophila ATCC 9341 at 100 microg/ml incubated for 20 hrs by liquid microculture method. The format is functional, organism-based. The note with it: dose 100.0 µg/ml.
In data set [4] the test system is Colletotrichum gloeosporioides. Nature of the data set: Antimicrobial activity against Glomerella cingulata NBRC5907 at 100 microg/ml incubated for 20 hrs by liquid microculture method. The format is functional, organism-based. The note with it: dose 100.0 µg/ml.
The subject of the next data set is Trichophyton rubrum. Briefly: Antimicrobial activity against Trichophyton rubrum NBRC5467 at 100 microg/ml incubated for 20 hrs by liquid microculture method. Format: functional, organism-based. The following applies: dose 100.0 µg/ml.
For data set [5], the system named is Trypanosoma cruzi. Nature of the data set: Antitrypanosomal activity against Trypanosoma cruzi Tulahuen amastigotes infected in human HT-1080 cells assessed as inhibition of parasite growth incubated for 3 days by light microscopic analysis. Format: functional, organism-based. The following applies: HT-1080, 72 h.
The test system of another data set is Escherichia coli. Nature of the data set: Antimicrobial activity against Escherichia coli NIHJ JC-2 at 100 microg/ml incubated for 20 hrs by liquid microculture method. The format is functional, organism-based. The following applies: dose 100.0 µg/ml.

The IC50 is the point on the concentration scale where inhibition reaches its midpoint.

Activity calls are given as the source filed them. No cut-off for these calls is given here.

Turning to `C\C(=C/C=C/C=C/[C@H]1[C@@H](C)[C@H](O)[C@@H](O)[C@H]2[C@H](O)[C@@H](C)C[C@@H](C)[C@H]12)C(=O)O`, the outcome (in the data set with Saccharomyces cerevisiae; in the data set with Staphylococcus aureus; in [1]; in the data set on Candida albicans; in the data set on Kocuria rhizophila; in data set [4]) was inactive. Also, the outcome in the data set with Trichophyton rubrum and in the data set on Escherichia coli was inactive. The Activity entry in [2] is “Non-Toxic”. In addition, the half-inhibitory concentration (IC50) with Trypanosoma cruzi [3] came out at 46 µM; in the data set on Trypanosoma cruzi [5] it was 27 µM.

For the origin of these results see ChEMBL document CHEMBL5584305, “Cladoic Acid, an Anti-Trypanosoma cruzi Polyketide from Cladosporium sp. TP-F2020” (J Nat Prod, 2024).
